# In US7488738B2, “Aminophenoxyacetic acid derivatives and pharmaceutical composition containing thereof” (Asubio Pharma Co., Ltd., priority 1998, dated 2009):
# Tests used:
# cells of cerebral cortex = assay: Cytoprotective effect against glutamate induced cell death (MTT); type: cell-based, rats of Wister strain; conditions: compound 1 μM added 24 h before 1 mM glutamate, fetal rat cerebral cortex cells, control group = 100%
# [1] = test system: rats of slc:Wister strain; assay: Cerebral edema suppressing effect (brain injury by metal screw); type: in vivo; conditions: rat, water content of injured hemisphere 6 days after operation
# Procedure: Biological Test 3: Cerebral Edema Suppressing Effect 8-week-old rats of slc:Wister strain were used. Rats were anesthetized by intraperitoneal administration of 50 mg/kg of Nembutal (Trade Name), and then, fixed on brain fixactor. The sterile metal screw (3.75 mm in length/1.0 mm in diameter/0.75 mm in length of screw thread) was plugged in the 1.5 mm right and 0.8 mm rear side of the bregma to press frontparietal cortex organ to cause brain injury. 6 days after the operation, the whole brain was taken out and right cerebral hemisphere (injured side) was isolated. After measurement of the wet weight of the cerebral hemisphere, it was dried at 110° C. for 24 hours on aluminum foil. The dry weight of the cerebral hemisphere was measured, and the water content was calculated by using the following formula: Water content (%)=[(wet weight of hemisphere−dry weight of hemisphere)/wet weight of hemisphere]×100 The test compounds were intravenously administered just after the operation via tail vein of the rats.
# calbindin D28Kd = assay: Calbindin D28Kd inducing effect (western blot); type: cell-based, rats of Wister strain; conditions: fetal rat cerebral cortex cells, none-treated control = 100
# Procedure: Biological Test 2: Calbindin D28Kd Inducing Effect
# In accordance with the method of M. P. Mattoson [M. P. Mattoson, Brain Res. Rev., 13, 179 (1988)], brain of 18-days fetus rats of Wister strain were taken out. Then, cells of cerebral cortex (5,500 cells/m^2) were seeded on poly-L-lysine coated 6 wells plate (Falcon) (3.5 mm, Sumilon) and incubated for 7 days.
# Test compounds were added on culture day 5, and after 7 days of incubation, the protein was extracted with homogenized buffer-solution [containing 20 mM of Tris-HCl (pH=7.4), 1 mM of EDTA, and 0.1 mM of phenylmethylsulfonyl fluoride].
# The effect of the test compounds was determined by the western blot technique using polyclonal anti calbindine D28K (Swant Co., Ltd.) as antibody.
# In the table, the amount of induced calbindine D28Kd of the control group (none-treated group) was indicated as 100 percents.
# [2] = 3 mg/kg intravenously just after operation
compound,measurement,setting,value
"Cc1cc(C)c(NCC(=O)N(C)C2CCN(C(=O)c3ccccc3)CC2)c(C)c1N [Compound 128, 2-(3-Amino-2,4,6-trimethylanilino)-N-(1-benzoyl-4-piperidinyl)-N-methylacetamide]",viability at 1 µM,cells of cerebral cortex; read-out: Survival Rate (%) (Compound: 1 μM),81%
same,Cerebral edema suppressing rate (%),[1]; [2],20.3%
same,Amount of induced Calbindine D28Kd (% vs. control) (Compound: 1 μM),calbindin D28Kd,171 % vs. control
"Cc1cc(OCC(=O)N(C)C2CCN(CC(=O)Nc3ccccc3)CC2)c(C)c(C)c1N [Compound 29, 2-(4-Amino-2,3,5-trimethylphenoxy)-N-[1-(2-anilino-2-oxyethyl)-4-piperidinyl]-N-methylacetamide]",Cerebral edema suppressing rate (%),[1]; [2],30.9%
same,Amount of induced Calbindine D28Kd (% vs. control) (Compound: 1 μM),calbindin D28Kd,122 % vs. control
"Cc1c(C)c(NCC(=O)N(C)C2CCN(CCc3ccccc3)CC2)c(C)c(C)c1N [Compound 40, 2-(4-Amino-2,3,5,6-tetramethylanilino)-N-methyl-N-[1-(2-phenethyl)-4-piperidinyl]acetamide]",Survival Rate (%) (Compound: 1 μM),cells of cerebral cortex,108%
same,Cerebral edema suppressing rate (%),[1]; 1 mg/kg intravenously just after operation,31.1%
same,Cerebral edema suppressing rate (%),[1]; [2],20.5%
same,Amount of induced Calbindine D28Kd (% vs. control) (Compound: 1 μM),calbindin D28Kd,150 % vs. control
"Cc1c(C)c(NCC(=O)N(C)C2CCN(CC(=O)c3ccccc3)CC2)c(C)c(C)c1N [Compound 111, 2-(4-Amino-2,3,5,6-tetramethylanilino)-N-methyl-[1-(2-phenyl-2-oxyethyl)-4-piperidinyl]acetamide]",Survival Rate (%) (Compound: 1 μM),cells of cerebral cortex,84%
same,Cerebral edema suppressing rate (%),[1]; [2],25.0%
same,Amount of induced Calbindine D28Kd (% vs. control) (Compound: 1 μM),calbindin D28Kd,167 % vs. control
"Cc1c(C)c(NCC(=O)N(C)C2CCN(CC(C(=O)O)c3ccccc3)CC2)c(C)c(C)c1N (centres unmarked) [Compound 109, 3{4-[[2-(4-Amino-2,3,5,6-tetramethylanilino)-acetyl](methyl)amino]-1-piperidino}-2-phenylpropionic acid]",Survival Rate (%) (Compound: 1 μM),cells of cerebral cortex,76%
same,Cerebral edema suppressing rate (%),[1]; [2],24.7%
